Reference: article PMC5931096, “A Phase I study of the novel immunomodulatory agent PG545 (pixatimod) in subjects with advanced solid tumours” (British Journal of Cancer, 2018)
Entries after “also recorded” stand apart in the source; their conditions may differ.

Assay: Phase I dose-escalation: safety, tolerability, DLT and MTD of weekly 1-h IV infusion
Type: in vivo
Procedure: The study was an open-label, multicentre, phase 1 dose-escalation study using a 3 + 3 design. The primary objective was to determine the MTD of weekly administered PG545 via IV infusion. Secondary objectives were to characterize safety, tolerability, clinical activity, PK and PD biomarkers.
Patients continued treatment until disease progression, unacceptable toxicity or withdrawal (either voluntarily or investigator-decision).
All patients were assessed for safety, those who received at least one dose of PG545 were evaluated for efficacy. Safety assessment included the incidence of all adverse events (AEs), irrespective of relationship to study drug, according to the National Cancer Institute Common Terminology Criteria for Adverse Events, version 4.0, and the incidence of patients experiencing dose modifications and/or premature discontinuation of study drug. Dose-limiting toxicities (DLTs) used to determine the MTD were defined as occurring during Cycle 1 of treatment only and related to PG545 according to investigator assessment. If no DLT occurred in the first three subjects, the next three-subject cohort was enrolled at the next highest available dose level. If a single DLT occurred, an additional three subjects was enrolled at the same dose level. Dose escalation continued until two subjects of the cohort experienced a DLT; this was defined as the toxic dose level. The dose-escalation phase was completed and MTD determined by reducing the dose to the next lowest dose compared to the toxic dose and expanding this cohort to at least 6 subjects.

CC(C)CCC[C@@H](C)[C@H]1CC[C@H]2[C@@H]3CC[C@H]4C[C@@H](O[C@@H]5O[C@H](COS(=O)(=O)O)[C@@H](O[C@H]6O[C@H](COS(=O)(=O)O)[C@@H](O[C@H]7O[C@H](COS(=O)(=O)O)[C@@H](O[C@H]8O[C@H](COS(=O)(=O)O)[C@@H](OS(=O)(=O)O)[C@H](OS(=O)(=O)O)[C@H]8OS(=O)(=O)O)[C@H](OS(=O)(=O)O)[C@H]7OS(=O)(=O)O)[C@H](OS(=O)(=O)O)[C@H]6OS(=O)(=O)O)[C@H](OS(=O)(=O)O)[C@H]5OS(=O)(=O)O)CC[C@]4(C)[C@H]3CC[C@]12C [PG545]
Acute pulmonary oedema, related AE leading to discontinuation (25 mg, N = 3): 0 n (%) | Acute pulmonary oedema, related serious AE (25 mg, N = 3): 0 n (%) | Acute pulmonary oedema, related severe AE (25 mg, N = 3): 0 n (%) | Blood cholesterol increased, related severe AE (25 mg, N = 3): 0 n (%) | Blood cholesterol increased, treatment-related AE (25 mg, N = 3): 0 n (%) | Blood pressure increased, related severe AE (25 mg, N = 3): 0 n (%) | Chills, related AE leading to discontinuation (25 mg, N = 3): 0 n (%) | Chills, related severe AE (25 mg, N = 3): 0 n (%) | Chills, treatment-related AE (25 mg, N = 3): 0 n (%) | Decreased appetite, treatment-related AE (25 mg, N = 3): 0 n (%) | Diarrhoea, treatment-related AE (25 mg, N = 3): 0 n (%) | Epistaxis, related AE leading to discontinuation (25 mg, N = 3): 0 n (%) | Epistaxis, related serious AE (25 mg, N = 3): 0 n (%) | Epistaxis, related severe AE (25 mg, N = 3): 0 n (%) | Fatigue, related severe AE (25 mg, N = 3): 0 n (%) | Fatigue, treatment-related AE (25 mg, N = 3): 0 n (%) | Headache, treatment-related AE (25 mg, N = 3): 0 n (%) | Hypercholesterolemia, treatment-related AE (25 mg, N = 3): 0 n (%) | Hyperlipidaemia, related severe AE (25 mg, N = 3): 0 n (%) | Hypertension, related AE leading to discontinuation (25 mg, N = 3): 0 n (%) | Hypertension, related serious AE (25 mg, N = 3): 0 n (%) | Hypertension, related severe AE (25 mg, N = 3): 0 n (%) | Hypertension, treatment-related AE (25 mg, N = 3): 0 n (%) | Hypovolaemia, related serious AE (25 mg, N = 3): 0 n (%) | Infusion-related reaction, related serious AE (25 mg, N = 3): 0 n (%) | Infusion-related reaction, related severe AE (25 mg, N = 3): 0 n (%) | Infusion-related reaction, treatment-related AE (25 mg, N = 3): 0 n (%) | Injection site reaction, treatment-related AE (25 mg, N = 3): 2 (67) n (%) | Nausea, treatment-related AE (25 mg, N = 3): 0 n (%) | Pyrexia, related AE leading to discontinuation (25 mg, N = 3): 0 n (%) | Pyrexia, related serious AE (25 mg, N = 3): 0 n (%) | Pyrexia, related severe AE (25 mg, N = 3): 0 n (%) | Pyrexia, treatment-related AE (25 mg, N = 3): 0 n (%) | Acute pulmonary oedema, related AE leading to discontinuation (50 mg, N = 5): 0 n (%) | Acute pulmonary oedema, related serious AE (50 mg, N = 5): 0 n (%) | Acute pulmonary oedema, related severe AE (50 mg, N = 5): 0 n (%) | Blood cholesterol increased, related severe AE (50 mg, N = 5): 0 n (%) | Blood cholesterol increased, treatment-related AE (50 mg, N = 5): 0 n (%) | Blood pressure increased, related severe AE (50 mg, N = 5): 0 n (%) | Chills, related AE leading to discontinuation (50 mg, N = 5): 1 (20) n (%) | Chills, related severe AE (50 mg, N = 5): 1 (20) n (%) | Chills, treatment-related AE (50 mg, N = 5): 1 (20) n (%) | Decreased appetite, treatment-related AE (50 mg, N = 5): 2 (40) n (%) | Diarrhoea, treatment-related AE (50 mg, N = 5): 1 (20) n (%) | Epistaxis, related AE leading to discontinuation (50 mg, N = 5): 0 n (%) | Epistaxis, related serious AE (50 mg, N = 5): 0 n (%) | Epistaxis, related severe AE (50 mg, N = 5): 0 n (%) | Fatigue, related severe AE (50 mg, N = 5): 1 (20) n (%) | Fatigue, treatment-related AE (50 mg, N = 5): 2 (40) n (%) | Headache, treatment-related AE (50 mg, N = 5): 0 n (%) | Hypercholesterolemia, treatment-related AE (50 mg, N = 5): 0 n (%) | Hyperlipidaemia, related severe AE (50 mg, N = 5): 0 n (%) | Hypertension, related AE leading to discontinuation (50 mg, N = 5): 0 n (%) | Hypertension, related serious AE (50 mg, N = 5): 0 n (%) | Hypertension, related severe AE (50 mg, N = 5): 0 n (%) | Hypertension, treatment-related AE (50 mg, N = 5): 1 (20) n (%) | Hypovolaemia, related serious AE (50 mg, N = 5): 0 n (%) | Infusion-related reaction, related serious AE (50 mg, N = 5): 0 n (%) | Infusion-related reaction, related severe AE (50 mg, N = 5): 0 n (%) | Infusion-related reaction, treatment-related AE (50 mg, N = 5): 0 n (%) | Injection site reaction, treatment-related AE (50 mg, N = 5): 0 n (%) | Nausea, treatment-related AE (50 mg, N = 5): 4 (80) n (%) | Pyrexia, related AE leading to discontinuation (50 mg, N = 5): 1 (20) n (%) | Pyrexia, related serious AE (50 mg, N = 5): 1 (20) n (%) | Pyrexia, related severe AE (50 mg, N = 5): 1 (20) n (%) | Pyrexia, treatment-related AE (50 mg, N = 5): 3 (60) n (%) | Dose-limiting toxicities (DLTs) (100 mg cohort): No DLTs were noted; also recorded: no further DLT observed | Hypertension (100 mg cohort): not observed | Acute pulmonary oedema, related AE leading to discontinuation (100 mg, N = 6): 0 n (%) | Acute pulmonary oedema, related serious AE (100 mg, N = 6): 0 n (%) | Acute pulmonary oedema, related severe AE (100 mg, N = 6): 0 n (%) | Blood cholesterol increased, related severe AE (100 mg, N = 6): 0 n (%) | Blood cholesterol increased, treatment-related AE (100 mg, N = 6): 1 (17) n (%) | Blood pressure increased, related severe AE (100 mg, N = 6): 0 n (%) | Chills, related AE leading to discontinuation (100 mg, N = 6): 0 n (%) | Chills, related severe AE (100 mg, N = 6): 0 n (%) | Chills, treatment-related AE (100 mg, N = 6): 0 n (%) | Decreased appetite, treatment-related AE (100 mg, N = 6): 1 (17) n (%) | Diarrhoea, treatment-related AE (100 mg, N = 6): 2 (33) n (%) | Epistaxis, related AE leading to discontinuation (100 mg, N = 6): 0 n (%) | Epistaxis, related serious AE (100 mg, N = 6): 0 n (%) | Epistaxis, related severe AE (100 mg, N = 6): 0 n (%) | Fatigue, related severe AE (100 mg, N = 6): 1 (17) n (%) | Fatigue, treatment-related AE (100 mg, N = 6): 2 (33) n (%) | Headache, treatment-related AE (100 mg, N = 6): 2 (33) n (%) | Hypercholesterolemia, treatment-related AE (100 mg, N = 6): 2 (33) n (%) | Hyperlipidaemia, related severe AE (100 mg, N = 6): 1 (17) n (%) | Hypertension, related AE leading to discontinuation (100 mg, N = 6): 0 n (%) | Hypertension, related serious AE (100 mg, N = 6): 0 n (%) | Hypertension, related severe AE (100 mg, N = 6): 0 n (%) | Hypertension, treatment-related AE (100 mg, N = 6): 0 n (%) | Hypovolaemia, related serious AE (100 mg, N = 6): 1 (17) n (%) | Infusion-related reaction, related serious AE (100 mg, N = 6): 0 n (%) | Infusion-related reaction, related severe AE (100 mg, N = 6): 0 n (%) | Infusion-related reaction, treatment-related AE (100 mg, N = 6): 0 n (%) | Injection site reaction, treatment-related AE (100 mg, N = 6): 0 n (%) | Nausea, treatment-related AE (100 mg, N = 6): 0 n (%) | Pyrexia, related AE leading to discontinuation (100 mg, N = 6): 0 n (%) | Pyrexia, related serious AE (100 mg, N = 6): 0 n (%) | Pyrexia, related severe AE (100 mg, N = 6): 0 n (%)
